Tested on: Vero cells
Type: cell-based

Chlorin e6 [free Ce6]
cell-associated Ce6-specific fluorescence (delivery of Ce6 to cells): no detectable Ce6-specific fluorescence

— patent US6631283B2 (priority 2000, dated 2003)
